# Where two headings read alike, the source gives them in different places. Positions of bridges follow the written chain, without caps; N, C: chain ends. Non-standard residues stand in square brackets, D forms with d. Residues, ends and D or L forms follow the SMILES beside them. ξ: configuration not given here. Ala(indol-4-yl) = N[C@@H](Cc1cccc2[nH]ccc12)C(=O)O; Phe(3,4-Cl2) = N[C@@H](Cc1ccc(Cl)c(Cl)c1)C(=O)O; Phe(4-CH2NH2) = NCc1ccc(C[C@H](N)C(=O)O)cc1; Ala(4-thiazolyl) = N[C@@H](Cc1cscn1)C(=O)O; Phe(3-F) = N[C@@H](Cc1cccc(F)c1)C(=O)O; Bta = N[C@@H](Cc1csc2ccccc12)C(=O)O; Hyp = O=C(O)[C@@H]1C[C@@H](O)CN1; NMeF = CN[C@@H](Cc1ccccc1)C(=O)O; tBuAla = CC(C)(C)C[C@H](N)C(=O)O; NMeNle = CCCC[C@H](NC)C(=O)O; hSer = N[C@@H](CCO)C(=O)O; NMeA = CN[C@@H](C)C(=O)O; Dap = NC[C@H](N)C(=O)O; ξhCys = NC(CCS)C(=O)O; ξC = NC(CS)C(=O)O; Sar = CNCC(=O)O
# How the values were obtained:
# [1] = target: T1, Human PD-L1/PD-1 (Homo sapiens, UniProt Q9NZQ7); test: HTRF PD-1-Ig/PD-L1-His binding assay (human PD-L1); conditions: cluster symbol; read-out: HTRF IC50 cluster
# T1 construct: made in house; host or cells: HEK293T
# Summary of the method: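 Soluble Fc-fused PD-1 and His-tagged PD-L1 (truncated before the transmembrane region) were combined in dPBS with 0.1% (w/v) BSA and 0.05% (v/v) Tween-20. Binding was read by HTRF using europium cryptate anti-Ig antibody (1 nM final) and APC anti-His antibody (20 nM final).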
# [2] = target: T2, LK35.2-hPD-L1 cells / PE-labeled PD-1-Ig (Homo sapiens, UniProt Q9NZQ7); test: LK35.2-hPD-L1 cell binding high-content screening assay; format: cell-based; conditions: cluster symbol, read-out: CBA IC50 cluster
# T2 construct: expressed in transfected cells; host or cells: LK35.2 mouse B cell line
# Summary of the method: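 Compound effect on PD-1/PD-L1 binding is measured by imaging cell-associated phycoerythrin signal. Human PD-1-Ig (PE on Ig tag, 1 nM final) is applied with compound to a murine B cell line overexpressing human PD-L1 for 1 h at 37 °C in serum-containing RPMI.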
# [3] = cell binding assay, cell line not given
# [4] = cell line of CBA not given (LK35.2-hPD-L1 or 293T-hPD-L1)
# T1 sequence (Q9NZQ7 with tags, fused parts or gaps): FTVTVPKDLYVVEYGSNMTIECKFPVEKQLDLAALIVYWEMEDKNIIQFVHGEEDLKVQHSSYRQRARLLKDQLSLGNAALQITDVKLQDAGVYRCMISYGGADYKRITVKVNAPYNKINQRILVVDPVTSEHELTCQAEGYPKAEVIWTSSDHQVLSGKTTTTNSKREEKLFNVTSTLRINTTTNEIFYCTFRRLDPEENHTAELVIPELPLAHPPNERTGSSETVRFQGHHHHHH
# T2 sequence (Q9NZQ7 19-290): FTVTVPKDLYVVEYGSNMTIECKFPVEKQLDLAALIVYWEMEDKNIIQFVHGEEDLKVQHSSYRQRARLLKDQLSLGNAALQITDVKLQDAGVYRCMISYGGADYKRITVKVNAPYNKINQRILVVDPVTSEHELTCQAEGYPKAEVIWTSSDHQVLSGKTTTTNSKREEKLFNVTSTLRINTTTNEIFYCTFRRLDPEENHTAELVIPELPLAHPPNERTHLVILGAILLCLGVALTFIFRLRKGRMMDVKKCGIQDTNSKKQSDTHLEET
IC50 [1] [nM],"IC50 [2, 3] [nM]","IC50 [2, 4] [nM]",SMILES
> 30.5,> 74.3,–,CCCC[C@H]1C(=O)N(C)[C@@H](CCCC)C(=O)N[C@@H](CCCNC(=N)N)C(=O)N[C@H](C(=O)NCC(N)=O)C/C=C/C(=O)N[C@@H](Cc2ccc(O)cc2)C(=O)N(C)[C@@H](C)C(=O)N[C@@H](CC(N)=O)C(=O)N2CCCC2C(=O)N[C@@H](Cc2cnc[nH]2)C(=O)N[C@@H](CC(C)C)C(=O)N2CCC[C@H]2C(=O)N[C@@H](Cc2c[nH]c3ccccc23)C(=O)N[C@@H](CO)C(=O)N[C@@H](Cc2c[nH]c3ccccc23)C(=O)N1C (stereo partly shown) [Example 7012]
0.385 to 6.74,> 74.3,–,CCCC[C@H]1C(=O)N(C)[C@@H](CCCC)C(=O)N[C@@H](CCCNC(=N)N)C(=O)NC(C(=O)NCC(N)=O)CSCC(=O)N[C@@H](Cc2ccc(O)cc2)C(=O)N(C)[C@@H](C)C(=O)N[C@@H](CC(N)=O)C(=O)N2CCC[C@H]2C(=O)N[C@@H](Cc2cnc[nH]2)C(=O)N[C@@H](CCO)C(=O)N2C[C@H](O)C[C@H]2C(=O)N[C@@H](Cc2c[nH]c3ccccc23)C(=O)N[C@@H](CO)C(=O)N[C@@H](Cc2csc3ccccc23)C(=O)N1C (stereo partly shown) [Example 9050] ({CH2CO}-Y[NMeA]NPH[hSer][Hyp]WS[Bta][NMeNle][NMeNle]R[ξC]G-NH2; thioether N-14)
> 30.5,–,> 74.3,CCCC[C@H]1C(=O)N(C)CC(=O)N[C@@H](CC(=O)O)C(=O)N[C@@H](C(C)C)C(=O)N(C)[C@@H](Cc2ccccc2)C(=O)N[C@@H](Cc2ccc(O)cc2)C(=O)N(C)CC(=O)N[C@@H](Cc2c[nH]c3ccccc23)C(=O)N[C@@H](Cc2ccc(O)cc2)C(=O)N[C@@H](CC(C)C)C(=O)N[C@H](C(=O)NCC(N)=O)CSCC(=O)N[C@@H](Cc2cscn2)C(=O)N(C)[C@@H](Cc2ccccc2)C(=O)N1C [Example 3092] ({CH2CO}-[Ala(4-thiazolyl)][NMeF][NMeNle][Sar]DV[NMeF]Y[Sar]WYLCG-NH2; thioether N-13)
> 30.5,–,> 74.3,"CCCC[C@H]1C(=O)N(C)CC(=O)N[C@@H](CC(=O)O)C(=O)N[C@@H](CCCNC(=N)N)C(=O)N(C)[C@@H](Cc2ccccc2)C(=O)N[C@@H](Cc2ccc(O)cc2)C(=O)N(C)CC(=O)N[C@@H](Cc2c[nH]c3ccccc23)C(=O)N[C@@H](Cc2ccc(O)cc2)C(=O)N[C@@H](CC(C)C)C(=O)N[C@H](C(=O)NCC(N)=O)CSCC(=O)N[C@@H](Cc2ccccc2)C(=O)N(C)[C@@H](Cc2ccccc2)C(=O)N1C [Example 3151] (HELM PEPTIDE1{[O=C(C[*:3])[*:2]].F.[meF].[CCCC[C@@H](C(=O)[*:2])N(C)[*:1]].[Sar].D.R.[meF].Y.[Sar].W.Y.L.C.G.[am]}$PEPTIDE1,PEPTIDE1,1:R3-14:R3$$$V2.0)"
0.385 to 6.74,0.158 to 4.71,–,CCCC[C@H]1C(=O)N(C)[C@@H](CCCC)C(=O)N[C@@H](CCCCN)C(=O)N[C@H](C(=O)NCC(N)=O)CSCC(=O)N[C@@H](Cc2ccc(O)cc2)C(=O)N(C)[C@@H](C)C(=O)N[C@@H](CC(N)=O)C(=O)N2CCC[C@H]2C(=O)N[C@@H](Cc2c[nH]cn2)C(=O)N[C@@H](CCC(=O)O)C(=O)N2C[C@H](O)C[C@H]2C(=O)N[C@@H](Cc2c[nH]c3ccccc23)C(=O)N[C@@H](CO)C(=O)N[C@@H](Cc2c[nH]c3ccccc23)C(=O)N1C [Example 5139] ({CH2CO}-Y[NMeA]NPHE[Hyp]WSW[NMeNle][NMeNle]KCG-NH2; thioether N-14)
0.385 to 6.74,0.158 to 4.71,–,CCCC[C@H]1C(=O)N(C)[C@@H](CCCC)C(=O)N[C@@H](CCC(=O)O)C(=O)N[C@H](C(=O)NCC(N)=O)CSCC(=O)N[C@@H](Cc2ccc(O)cc2)C(=O)N(C)[C@@H](C)C(=O)N[C@@H](CC(=O)O)C(=O)N2CCC[C@H]2C(=O)N[C@@H](Cc2cnc[nH]2)C(=O)N[C@@H](CCCCN)C(=O)N2C[C@H](O)C[C@H]2C(=O)N[C@@H](Cc2c[nH]c3ccccc23)C(=O)N[C@@H](CCCCN)C(=O)N[C@@H](Cc2c[nH]c3ccccc23)C(=O)N1C [Example 5069] ({CH2CO}-Y[NMeA]DPHK[Hyp]WKW[NMeNle][NMeNle]ECG-NH2; thioether N-14)
0.385 to 6.74,4.78 to 72.9,–,CCCC[C@H]1C(=O)N(C)[C@@H](CCCC)C(=O)N[C@@H](CCCNC(=N)N)C(=O)NC(C(=O)NCC(N)=O)CCSCC(=O)N[C@@H](Cc2ccc(O)cc2)C(=O)N(C)[C@@H](C)C(=O)N[C@@H](CC(N)=O)C(=O)N2CCC[C@H]2C(=O)N[C@@H](Cc2cnc[nH]2)C(=O)N[C@@H](CC(C)C)C(=O)N2C[C@H](O)C[C@H]2C(=O)N[C@@H](Cc2c[nH]c3ccccc23)C(=O)N[C@@H](CO)C(=O)N[C@@H](Cc2csc3ccccc23)C(=O)N1C (stereo partly shown) [Example 9020] ({CH2CO}-Y[NMeA]NPHL[Hyp]WS[Bta][NMeNle][NMeNle]R[ξhCys]G-NH2; thioether N-14)
6.76 to 30.3,–,4.78 to 72.9,CCCC[C@H]1C(=O)N(C)[C@@H](CCCC)C(=O)N[C@@H](C)C(=O)N[C@H](C(=O)NCC(N)=O)CSCC(=O)N[C@@H](Cc2ccc(O)cc2)C(=O)N2CCC[C@H]2C(=O)N[C@@H](CC(=O)O)C(=O)N2CCC[C@H]2C(=O)N[C@@H](CN)C(=O)N[C@@H](CC(C)C)C(=O)N2C[C@H](O)C[C@H]2C(=O)N[C@@H](Cc2c[nH]c3ccccc23)C(=O)N[C@@H](CO)C(=O)N[C@@H](Cc2c[nH]c3ccccc23)C(=O)N1C [Example 1152] ({CH2CO}-YPDP[Dap]L[Hyp]WSW[NMeNle][NMeNle]ACG-NH2; thioether N-14)
> 30.5,–,> 74.3,CCCC[C@H]1C(=O)N(C)CC(=O)N[C@@H](CC(=O)O)C(=O)N[C@@H](C(C)C)C(=O)N(C)[C@@H](Cc2ccccc2)C(=O)N[C@@H](Cc2ccc(O)cc2)C(=O)N(C)CC(=O)N[C@@H](Cc2c[nH]c3ccccc23)C(=O)N[C@@H](Cc2ccc(O)cc2)C(=O)N[C@@H](CC(C)C)C(=O)N[C@H](C(=O)NCC(N)=O)CSCC(=O)N[C@@H](Cc2cccc3[nH]ccc23)C(=O)N(C)[C@@H](Cc2ccccc2)C(=O)N1C [Example 3103] ({CH2CO}-[Ala(indol-4-yl)][NMeF][NMeNle][Sar]DV[NMeF]Y[Sar]WYLCG-NH2; thioether N-13)
6.76 to 30.3,4.78 to 72.9,–,CCCC[C@H]1C(=O)N(C)[C@@H](CCCC)C(=O)N[C@@H](CC(C)(C)C)C(=O)N[C@H](C(=O)NCC(N)=O)CSCC(=O)N[C@@H](Cc2ccc(O)cc2)C(=O)N(C)[C@@H](C)C(=O)N[C@@H](CC(N)=O)C(=O)N2CCC[C@H]2C(=O)N[C@@H](Cc2c[nH]cn2)C(=O)N[C@@H](CCC(N)=O)C(=O)N2C[C@H](O)C[C@H]2C(=O)N[C@@H](Cc2c[nH]c3ccccc23)C(=O)N[C@@H](CO)C(=O)N[C@@H](Cc2c[nH]c3ccccc23)C(=O)N1C [Example 5076] ({CH2CO}-Y[NMeA]NPHQ[Hyp]WSW[NMeNle][NMeNle][tBuAla]CG-NH2; thioether N-14)
6.76 to 30.3,–,0.158 to 4.71,CCCC[C@H]1C(=O)N(C)CC(=O)N[C@@H](CC(=O)O)C(=O)N[C@@H](C(C)C)C(=O)N(C)[C@@H](Cc2ccccc2)C(=O)N[C@@H](Cc2ccc(CN)cc2)C(=O)N(C)CC(=O)N[C@@H](Cc2csc3ccccc23)C(=O)N[C@@H](Cc2ccc(O)cc2)C(=O)N[C@@H](CC(C)C)C(=O)N[C@H](C(=O)NCC(N)=O)CSCC(=O)N[C@@H](Cc2cccc(F)c2)C(=O)N(C)[C@@H](Cc2ccccc2)C(=O)N1C [Example 3121] ({CH2CO}-[Phe(3-F)][NMeF][NMeNle][Sar]DV[NMeF][Phe(4-CH2NH2)][Sar][Bta]YLCG-NH2; thioether N-13)
6.76 to 30.3,–,4.78 to 72.9,"CCCC[C@H]1C(=O)N(C)[C@@H](CCCC)C(=O)N[C@@H](CCCNC(=N)N)C(=O)N[C@H](C(=O)NCC(N)=O)CSCC(=O)N[C@@H](Cc2ccc(Cl)c(Cl)c2)C(=O)N(C)[C@@H](C)C(=O)N[C@@H](CC(N)=O)C(=O)N2CCC[C@H]2C(=O)N[C@@H](Cc2cnc[nH]2)C(=O)N[C@@H](CC(C)C)C(=O)N(C)CC(=O)N[C@@H](Cc2c[nH]c3ccccc23)C(=O)N[C@@H](CO)C(=O)N[C@@H](Cc2c[nH]c3ccccc23)C(=O)N1C [Example 1103] ({CH2CO}-[Phe(3,4-Cl2)][NMeA]NPHL[Sar]WSW[NMeNle][NMeNle]RCG-NH2; thioether N-14)"
0.385 to 6.74,0.158 to 4.71,–,CCCC[C@H]1C(=O)N(C)[C@@H](CCCC)C(=O)N[C@@H](CCCNC(=N)N)C(=O)N[C@H](C(=O)NCC(N)=O)CSCC(=O)N[C@@H](Cc2ccc(O)cc2)C(=O)N(C)[C@@H](C)C(=O)N[C@@H](CC(N)=O)C(=O)N2CCC[C@H]2C(=O)N[C@@H](CN)C(=O)N[C@@H](CC(C)C)C(=O)N2C[C@H](O)C[C@H]2C(=O)N[C@@H](Cc2c[nH]c3ccccc23)C(=O)N[C@@H](CC(C)C)C(=O)N[C@@H](Cc2c[nH]c3ccccc23)C(=O)N1C [Example 6034] ({CH2CO}-Y[NMeA]NP[Dap]L[Hyp]WLW[NMeNle][NMeNle]RCG-NH2; thioether N-14)
0.385 to 6.74,4.78 to 72.9,–,CCCC[C@H]1C(=O)N(C)[C@@H](COc2cccc(C)c2)C(=O)N[C@@H](CCN)C(=O)N[C@H](C(=O)NCC(N)=O)CSCC(=O)N[C@@H](Cc2ccc(O)cc2)C(=O)N(C)[C@@H](C)C(=O)N[C@@H](CC(N)=O)C(=O)N2CCC[C@H]2C(=O)N[C@@H](CN)C(=O)N[C@@H](CCC(=O)O)C(=O)N2C[C@H](O)C[C@H]2C(=O)N[C@@H](Cc2c[nH]c3ccccc23)C(=O)N[C@@H](CO)C(=O)N[C@@H](Cc2c[nH]c3ccccc23)C(=O)N1C [Example 6030]

# Source: patent US9850283B2, “Macrocyclic inhibitors of the PD-1/PD-L1 and CD80(B7-1)/PD-L1 protein/protein interactions” (BRISTOL-MYERS SQUIBB COMPANY, priority 2013, dated 2017)
